Test results as given in patent US10336732B2, “1-heterocyclyl isochromanyl compounds and analogs for treating CNS disorders” (Sunovion Pharmaceuticals Inc., priority 2015, dated 2019).

Molecular target: T1, M4 (Homo sapiens, UniProt P08173)
T1 construct: expressed in transfected cells; host or cells: CHO cells
T1 sequence (P08173 1-479): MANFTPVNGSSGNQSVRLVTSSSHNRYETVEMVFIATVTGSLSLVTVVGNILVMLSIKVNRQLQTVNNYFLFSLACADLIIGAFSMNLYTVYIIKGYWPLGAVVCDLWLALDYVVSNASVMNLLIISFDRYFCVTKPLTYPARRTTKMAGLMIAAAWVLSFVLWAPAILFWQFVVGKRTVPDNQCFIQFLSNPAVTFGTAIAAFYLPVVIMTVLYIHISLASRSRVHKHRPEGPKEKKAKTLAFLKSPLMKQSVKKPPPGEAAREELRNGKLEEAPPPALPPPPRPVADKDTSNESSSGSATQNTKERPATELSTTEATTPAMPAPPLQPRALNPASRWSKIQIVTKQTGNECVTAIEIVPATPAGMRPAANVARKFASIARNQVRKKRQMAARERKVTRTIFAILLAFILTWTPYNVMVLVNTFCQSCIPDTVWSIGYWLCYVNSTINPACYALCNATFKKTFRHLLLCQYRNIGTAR
Assay: In vitro radioligand binding assay, M4, [3H]4-DAMP
Conditions: human recombinant (CHO cells)
Procedure: Certain compounds were tested by in vitro binding assays using standard procedures. […] These receptors and assays are well known to those skilled in the art, as exemplified by the following: Abramovitz, M. et al. (2000), Biochem. Biophys. Acta., 1483: 285-293 (EP4, IP (PGI2)); Aharony, D. et al. (1993), Mol. Pharmacol., 44: 356-363 (NK2); Ardati, A. et al. (1997), Mol. Pharmacol., 51: 816-824 (NOP (ORL1)); Bignon, E. et al. (1999), J. Pharmacol. Exp. Ther. 289: 742-751 (CCK1 (CCKA)); Bloomquist, B. T. et al. (1998), Biochem. Biophys. Res. Commun., 243: 474-479 (GAL2); Brockhaus, M. et al. (1990), Proc. Natl. Acad. Sci. U.S.A., 87: 3127-3131 (TNF-α); Brown, G. B. (1986), J. Neurosci., 6: 2064-2070 (Na+ channel (site 2)); Buchan, K. W. et al. (1994), Brit. J. Pharmacol., 112: 1251-1257 (ETA); Cesura, A. M. et al. (1990), Mol. Pharmacol., 37: 358-366 (MAO-A); Choi, D. S. et al. (1994), FEBS Lett., 352: 393-399 (5-HT2B); Clark, A. F. et al. (1996), Invest. Ophtalmol. Vis. […]

With Fc1cccc2c1CCO[C@@H]2[C@H]1CCN1 [Compound I-96, (R)-2-((S)-5-fluoroisochroman-1-yl)azetidine] the “M4 percent inhibition of specific binding” value was “M4 (53%)”.
